Measurements taken from patent US20090270350A1, “Pyridinone Pyrazole Urea and Pyrimidinone Pyrazole Urea Derivatives” (PFIZER INC., priority 2006, published 2009).

Biological target: p38α (Homo sapiens, UniProt Q16539)
Test: p38α/MK2 cascade assay
Format: biochemical
Details: Table 1; inhibitors preincubated with p38α for 40 minutes; phosphorylation of Hsp27 peptide by MK-2, Caliper LabChip 3000; read-out: p38a/MK2 Cascade 40 min Pre-Incuabtion (% Inhibition): IC50
How it was run: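 In a cascade format, p38α was preincubated 40 min with inhibitor (1000–0.05 nM) before adding 1 nM nonactive MK2 (54-400), 5 μM MgATP and 0.5 μM FITC-Hsp27 peptide. Reaction ran 60 min in HEPES pH 7.5 with MgCl2, DTT, 2% DMSO, then EDTA-quenched. Peptide phosphorylation was measured by Caliper mobility shift to give IC50.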

Sequence of p38α (Q16539 whole entry): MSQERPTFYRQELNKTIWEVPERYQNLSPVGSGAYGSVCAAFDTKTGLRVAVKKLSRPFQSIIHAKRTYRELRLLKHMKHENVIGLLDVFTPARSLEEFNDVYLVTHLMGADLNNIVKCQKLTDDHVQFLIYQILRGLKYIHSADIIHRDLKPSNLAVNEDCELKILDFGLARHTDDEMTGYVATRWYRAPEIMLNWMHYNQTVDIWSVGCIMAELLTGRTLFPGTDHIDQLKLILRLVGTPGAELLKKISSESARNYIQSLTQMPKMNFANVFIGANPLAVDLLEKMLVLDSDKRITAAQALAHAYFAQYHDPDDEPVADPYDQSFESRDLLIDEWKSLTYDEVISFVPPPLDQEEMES

Question: Which IC50 does the source give for `COc1cccc(Cn2c(C)cc(OCc3ccc(F)cc3CNC(=O)Nc3cc(C(C)(C)C)nn3-c3cccc(OCCO)c3)c(Cl)c2=O)c1` [Example 39, 1-{3-tert-butyl-1-[3-(2-hydroxyethoxy)phenyl]-1-pyrazol-5-yl}-3-[2-({[3-chloro-1-(3-methoxybenzyl)-6-methyl-2-oxo-1,2-dihydropyridin-4-yl]oxy}methyl)-5-fluorobenzyl]urea] here?
Answer: 7.3 nM

Question: Which IC50 does the source give for `Cc1ccc(-n2nc(C(C)(C)C)cc2NC(=O)NCc2ccccc2COc2cc(C)n(Cc3ccccc3)c(=O)c2Br)cc1` [Example 106, 1-(2-{[(1-benzyl-3-bromo-6-methyl-2-oxo-1,2-dihydropyridin-4-yl)oxy]methyl}benzyl)-3-[3-tert-butyl-1-(4-methylphenyl)-1H-pyrazol-5-yl]urea] here?
Answer: 4.59 nM

Question: Which IC50 does the source give for `COc1ccc(Cn2c(C)cc(OCc3ccccc3CNC(=O)Nc3cc(C(C)(C)C)nn3-c3cccc(O)c3)cc2=O)cc1` [Example 55, 1-[3-tert-butyl-1-(3-hydroxyphenyl)-1H-pyrazol-5-yl]-3-[2-({[1-(4-methoxybenzyl)-6-methyl-2-oxo-1,2-dihydropyridin-4-yl]oxy}methyl)benzyl]urea] here?
Answer: 24.3 nM

Question: `COc1ccc(Cn2c(C)cc(OCc3ccccc3CNC(=O)Nc3cc(C(C)(C)C)nn3-c3ccc(O)c(Cl)c3)cc2=O)cc1` [Example 56, 1-[3-tert-butyl-1-(3-chloro-4-hydroxyphenyl)-1H-pyrazol-5-yl]-3-[2-({[1-(4-methoxybenzyl)-6-methyl-2-oxo-1,2-dihydropyridin-4-yl]oxy}methyl)benzyl]urea] was tested. Which IC50 did it give?
Answer: 39.2 nM

Question: `COc1ccc(Cn2c(C)cc(OCc3ccc(F)cc3CNC(=O)Nc3cc(C(C)(C)C)nn3-c3cccc(OCCO)c3)c(Cl)c2=O)cc1` [Example 60, 1-{3-tert-butyl-1-[3-(2-hydroxyethoxy)phenyl]-1H-pyrazol-5-yl}-3-[2-({[3-chloro-1-(4-methoxybenzyl)-6-methyl-2-oxo-1,2-dihydropyridin-4-yl]oxy}methyl)-5-fluorobenzyl]urea] was tested. Which IC50 did it give?
Answer: 3.7 nM

Question: For `COC(=O)c1ccc(C)c(-n2c(C)cc(OCc3ccc(F)cc3CNC(=O)Nc3cc(C(C)(C)C)nn3-c3ccc(C)cc3)c(Cl)c2=O)c1` [Example 181, Methyl 3-{4-[(2-{[({[3-tert-butyl-1-(4-methylphenyl)-1H-pyrazol-5-yl]amino}carbonyl)amino]methyl}-4-fluorobenzyl)oxy]-3-chloro-6-methyl-2-oxopyridin-1(2H)-yl}-4-methylbenzoate], which IC50 is on record?
Answer: 3.31 nM

Question: Which IC50 does the source give for `COc1cc(Cn2c(C)cc(OCc3ccccc3CNC(=O)Nc3cc(C(C)(C)C)nn3-c3cccc(O)c3)c(Cl)c2=O)ccc1Cl` [Example 81, 1-[3-tert-butyl-1-(3-hydroxyphenyl)-1H-pyrazol-5-yl]-3-[2-({[3-chloro-1-(4-chloro-3-methoxybenzyl)-6-methyl-2-oxo-1,2-dihydropyridin-4-yl]oxy}methyl)benzyl]urea] here?
Answer: 20.1 nM

Question: How did the IC50 turn out when `COc1cccc(Cn2c(C)cc(OCc3ccc(F)cc3CNC(=O)Nc3cc(C(C)(C)C)nn3-c3ccc(O)c(Cl)c3)c(Cl)c2=O)c1` [Example 46, 1-[3-tert-butyl-1-(3-chloro-4-hydroxyphenyl)-1H-pyrazol-5-yl]-3-[2-({[3-chloro-1-(3-methoxybenzyl)-6-methyl-2-oxo-1,2-dihydropyridin-4-yl]oxy}methyl)-5-fluorobenzyl]urea] was run?
Answer: 4 nM

Question: For `COc1ccc(Cn2c(C)cc(OCc3ccccc3CNC(=O)Nc3cc(C4CC4)nn3-c3ccccc3)c(Br)c2=O)cc1` [Example 102, 1-[2-({[3-bromo-1-(4-methoxybenzyl)-6-methyl-2-oxo-1,2-dihydropyridin-4-yl]oxy}methyl)benzyl]-3-(3-cyclopropyl-1-phenyl-1H-pyrazol-5-yl)urea], which IC50 is on record?
Answer: 182 nM

Question: `COc1ccc(Cn2c(C)cc(OCc3ccccc3CNC(=O)Nc3cc(C(C)(C)C)nn3-c3ccc(C)cc3)c(Br)c2=O)c(OC)c1` [Example 122, 1-[2-({[3-bromo-1-(2,4-dimethoxybenzyl)-6-methyl-2-oxo-1,2-dihydropyridin-4-yl]oxy}methyl)benzyl]-3-[3-tert-butyl-1-(4-methylphenyl)-1H-pyrazol-5-yl]urea] was tested. Which IC50 did it give?
Answer: 15.4 nM

Same assay, conditions: Table 2; same p38α/MK2 cascade assay; 40 minutes preincubation; read-out: p38a/MK2 Cascade 40 min Pre-Incuabtion (% Inhibition): IC50

Question: How did the IC50 turn out when `Cc1cc(OCc2ccccc2CNC(=O)Nc2cc(C(C)(C)C)nn2-c2ccc(O)c(Cl)c2)c(Cl)c(=O)n1Cc1ccc(CNC(=O)CN)cc1` [Example 274, N-[4-({4-[(2-{[({[3-tert-butyl-1-(3-chloro-4-hydroxyphenyl)-1H-pyrazol-5-yl]amino}carbonyl)amino]methyl}benzyl)oxy]-3-chloro-6-methyl-2-oxopyridin-1(2H)-yl}methyl)benzyl]-glycinamide] was run?
Answer: 3.6 nM

Question: For `COc1ccc(Cn2c(C)cc(OCc3ccccc3CNC(=O)Nc3cc(C(C)(C)C)nn3-c3ccc(F)cc3F)c(C)c2=O)c(OC)c1` [Example 244, 1-[3-tert-butyl-1-(2,4-difluorophenyl)-1H-pyrazol-5-yl]-3-[2-({[1-(2,4-dimethoxybenzyl)-3,6-dimethyl-2-oxo-1,2-dihydropyridin-4-yl]oxy}methyl)benzyl]urea], which IC50 is on record?
Answer: 13.7 nM

Question: With `COc1ccc(Cn2c(C)cc(OCc3ccccc3CNC(=O)Nc3cc(C(C)(C)C)nn3-c3ccc(O)c(Cl)c3)c(C)c2=O)cc1C#N` [Example 249, 1-[3-tert-butyl-1-(3-chloro-4-hydroxyphenyl)-1H-pyrazol-5-yl]-3-[2-({[1-(3-cyano-4-methoxybenzyl)-3,6-dimethyl-2-oxo-1,2-dihydropyridin-4-yl]oxy}methyl)benzyl]urea] as the compound, how does the IC50 read?
Answer: 9.6 nM

Question: Which IC50 does the source give for `COc1ccc(Cn2c(C)cc(OCc3ccccc3CNC(=O)Nc3cc(C(C)(C)C)nn3-c3ccccc3)c(C)c2=O)c(OC)c1` [Example 243, 1-(3-tert-butyl-1-phenyl-1H-pyrazol-5-yl)-3-[2-({[1-(2,4-dimethoxybenzyl)-3,6-dimethyl-2-oxo-1,2-dihydropyridin-4-yl]oxy}methyl)benzyl]urea] here?
Answer: 9.54 nM

Question: How did the IC50 turn out when `CSc1ccccc1Cn1c(C)cc(OCc2ccccc2CNC(=O)Nc2cc(C(C)(C)C)nn2-c2ccc(Cl)c(O)c2)c(Cl)c1=O` [Example 273, 1-[3-tert-butyl-1-(4-chloro-3-hydroxyphenyl)-1H-pyrazol-5-yl]-3-{2-[({3-chloro-6-methyl-1-[2-(methylthio)benzyl]-2-oxo-1,2-dihydropyridin-4-yl}oxy)methyl]benzyl}urea] was run?
Answer: 121 nM

Question: For `CSc1ccccc1Cn1c(C)cc(OCc2ccccc2CNC(=O)Nc2cc(C(C)(C)C)nn2-c2cccc(OCCO)c2)c(Cl)c1=O` [Example 269, 1-{3-tert-butyl-1-[3-(2-hydroxyethoxy)phenyl]-1H-pyrazol-5-yl}-3-{2-[({3-chloro-6-methyl-1-[2-(methylthio)benzyl]-2-oxo-1,2-dihydropyridin-4-yl}oxy)methyl]benzyl}urea], which IC50 is on record?
Answer: 20.4 nM

Question: Which IC50 does the source give for `COc1ccccc1Cn1c(C)cc(OCc2ccccc2CNC(=O)Nc2cc(C(C)(C)C)nn2-c2ccc(Cl)c(O)c2)c(C)c1=O` [Example 275, 1-[3-tert-butyl-1-(4-chloro-3-hydroxyphenyl)-1H-pyrazol-5-yl]-3-[2-({[1-(2-methoxybenzyl)-3,6-dimethyl-2-oxo-1,2-dihydropyridin-4-yl]oxy}methyl)benzyl]urea] here?
Answer: 53.7 nM

Question: `COC(=O)c1ccc(C)c(-n2c(C)cc(OCc3ccc(F)cc3CNC(=O)Nc3cc(C(C)(C)C)nn3-c3ccc(O)cc3)c(Cl)c2=O)c1` [Example 232, methyl 3-{4-[(2-{[({[3-tert-butyl-1-(4-hydroxyphenyl)-1H-pyrazol-5-yl]amino}carbonyl)amino]methyl}-4-fluorobenzyl)-oxy]-3-chloro-6-methyl-2-oxopyridin-1(2H)-yl}-4-methylbenzoate] was tested. Which IC50 did it give?
Answer: 4.4 nM

Question: `COc1ccc(Cn2c(C)cc(OCc3ccccc3CNC(=O)Nc3cc(C(C)(C)C)nn3-c3cccc(O)c3)c(C)c2=O)cc1Cl` [Example 259, 1-[3-tert-butyl-1-(3-hydroxyphenyl)-1H-pyrazol-5-yl]-3-[2-({[1-(3-chloro-4-methoxybenzyl)-3,6-dimethyl-2-oxo-1,2-dihydro-pyridin-4-yl]oxy}methyl)benzyl]urea] was tested. Which IC50 did it give?
Answer: 9.2 nM

Question: `COc1ccc(Cn2c(C)cc(OCc3ccccc3CNC(=O)Nc3cc(C(C)(C)C)nn3-c3ccc(C)cc3)c(C)c2=O)c(OC)c1` [Example 245, 1-[3-tert-butyl-1-(4-methylphenyl)-1H-pyrazol-5-yl]-3-[2-({[1-(2,4-dimethoxybenzyl)-3,6-dimethyl-2-oxo-1,2-dihydropyridin-4-yl]oxy}methyl)benzyl]urea] was tested. Which IC50 did it give?
Answer: 13.4 nM

Question: Which IC50 does the source give for `COc1ccc(Cn2c(C)cc(OCc3ccc(F)cc3CNC(=O)Nc3cc(C(C)(C)C)nn3-c3ccc(Cl)c(O)c3)c(Cl)c2=O)cc1` [Example 202, 1-[3-tert-butyl-1-(4-chloro-3-hydroxyphenyl)-1H-pyrazol-5-yl]-3-[2-({[3-chloro-1-(4-methoxy-benzyl)-6-methyl-2-oxo-1,2-dihydropyridin-4-yl]oxy}methyl)-5-fluorobenzyl]urea] here?
Answer: 3.1 nM

Question: How did the IC50 turn out when `COCCNC(=O)c1ccc(C)c(-n2c(C)cc(OCc3ccccc3CNC(=O)Nc3cc(C(C)(C)C)nn3-c3ccc(O)cc3)c(Cl)c2=O)c1` [Example 218, 3-{4-[(2-{[({[3-tert-butyl-1-(4-hydroxyphenyl)-1H-pyrazol-5-yl]amino}carbonyl)amino]methyl}benzyl)oxy]-3-chloro-6-methyl-2-oxopyridin-1(2H)-yl}-N-(2-methoxyethyl)-4-methyl-benzamide] was run?
Answer: 1.81 nM

Question: For `Cc1ccc(C(=O)NCCO)cc1-n1c(C)cc(OCc2ccccc2CNC(=O)Nc2cc(C(C)(C)C)nn2-c2ccc(O)c(Cl)c2)c(Cl)c1=O` [Example 224, 3-{4-[(2-{[({[3-tert-butyl-1-(3-chloro-4-hydroxyphenyl)-1H-pyrazol-5-yl]amino}carbonyl)amino]methyl}benzyl)oxy]-3-chloro-6-methyl-2-oxopyridin-1(2H)-yl}-N-(2-hydroxyethyl)-4-methylbenzamide], which IC50 is on record?
Answer: 3.2 nM
